Earlier results, collected in patent publication US7993684B2, “Method of inhibiting alveolar bone resorption and periodontal membrane loss and composition for internal use to be used therein” (Sunstar Inc., priority 2003, dated 2011).

Experiments:
[1] = test system: periodontal disease-causing bacteria; settings: Japanese Unexamined Patent Publication No. 1992-283518
[2] = test system: alveolar bone resorption; settings: Japanese Unexamined Patent Publication No. 1996-133969

| Compound | Antibacterial activity against periodontal disease-causing bacteria [1] | Inhibition of alveolar bone resorption related to periodontal disease [2] |
| --- | --- | --- |
| O=c1c(-c2ccc(O)cc2)coc2cc(O)cc(O)c12 [genistein] | shows antibacterial activity |  |
| calcium pantothenate |  | inhibit alveolar bone resorption |
